Results reported in patent EP2241555A1, “New RAC1 inhibitors as potential pharmacological agents for heart failure treatment” (UNIVERSITA' DEGLI STUDI DI MILANO, priority 2009, dated 2010).
Read-outs that look alike come from different tables or passages of the source.

Tests used:
[1] = system: primary rat cardiomyocytes; test: Resazurine cytotoxicity assay (metabolic activity), primary rat cardiomyocytes; assay type: cell-based; conditions: for MVC / EC50: 24 h; for MVC: maximal viability concentration; for Cytotoxicity-Classification: 24 h exposure; for EC50: Cardiomyocyte, metabolic activity
Protocol: (§1) For a pre-screening of the compounds they were first tested in human hepatocellular carcinoma cells (HepG2 cells)for 24 h and to gain further information about the cytotoxic potential more specific target tissues like the mouse cardiomyocytes HL-1 and primary rat cardiomyocytes were used additionally. […] The toxicity classification has been determined by using drugs currently utilized in clinic with known toxicity profile

CYP2D6 = CYP2D6 (Homo sapiens, UniProt P10635); test: Inhibition of CYP2D6 activity; assay type: biochemical; conditions: read-out: CYP2D6 activity inhibited by
Rac1 [2] = target: T1, Rac1 (Homo sapiens, UniProt P63000); test: G-LISA assay of intracellular Rac1-GTP in PDGF-BB stimulated human smooth muscle cells; assay type: cell-based; conditions: for remaining activity at 50 µM: Concentration 50 µm, 4 hours incubation, then PDGF-BB 10 ng/ml, Rac1-GTP detected relative to control (100), lower = more inhibition, read-out: Rac1 inhibitory activity (% vs control); for inhibitory action on Rac1 activity: G-LISA, 50 µM, statement in words
T1 construct: endogenous in cells; host or cells: human cultured smooth muscle cells, stimulated with PDGF-BB
Text: The intracellular amount of Rac1-GTP has been determined using the GLISA™ assay (Cytoskeleton, Inc). The GLISA™ assay uses a 96-well plate coated with RBD domain of Rac1-family effector protein PAK1. […] A significant inhibition on Rac1 activity should decrease the intracellular levels of Rac1-GTP and therefore reduce the percentage of Rac1-GTP detected compared to control untreated cells.

HepG2 cells = test: Resazurine cytotoxicity assay (metabolic activity), HepG2; assay type: cell-based, human; conditions: for MVC / EC50: HepG2, 24 h; for MVC: maximal viability concentration; for Cytotoxicity-Classification: HepG2, 24 h exposure; for EC50: Homo sapiens, metabolic activity, read-out: EC50
Protocol: as §1

Caco2 = Caco2 monolayer permeation; assay type: in vitro ADME, human; conditions: Caco2 monolayers, 90 min, start concentration 50 µM
Protocol: (§2) The permeation characteristics of the Rac1 inhibitors were determined first in the artificial system PAMPA (Parallel Artificial Membrane Permeability Assay) which uses a membrane covered with a lipid to simulate the lipid bilayer of various cell types, including intestinal epithelium and second in vitro across Caco2, a human colon carcinoma cell line seeded as monolayers onto polycarbonate membranes. The PAMPA is able to predict the ability of a compound to permeate by a passive transcellular transport through an artificial lipid layer assembled on a membrane and also allows a classification into low (flux <20%), medium (20%≤ flux ≤70%), and high (flux >70%) absorbing substances. The Caco2 assay provides a well-established in vitro model to predict the human intestinal absorption.

[3] = Caco2 monolayer permeation; assay type: in vitro ADME, human; conditions: human, start concentration 50 µM; for Papp at 90 min, 50 µM: Caco-2, Caco2 monolayers
Protocol: as §2

HL-1 = test: Resazurine cytotoxicity assay (metabolic activity), HL-1; assay type: cell-based, mouse; conditions: for MVC / EC50: HL-1, 24 h; for MVC: maximal viability concentration; for Cytotoxicity-Classification: HL-1, 24 h exposure; for EC50: Mus musculus, metabolic activity
Protocol: as §1

HL-1 cells = test: Apoptosis of ischemic HL-1 cardiomyocytes (TUNEL assay, flow cytometer); assay type: cell-based, mouse; conditions: 100 µM; for Relative rate of apoptosis normalised to control [%]: 8 h ischemia (glucose deficient medium + hydrogen peroxide), 8h Ischemia alone 701.6, 8h Control 100
Protocol: To establish a cardiomyocytes based apoptosis assay, which mimics the post-ischemic damage observed after myocardial infarction, we have utilized a cardiac muscle cell line, HL-1 cells, derived from the AT-1 mouse atrial cardiomyocyte tumor lineage. The HL-1 cells were incubated in glucose deficient medium in the presence of hydrogen peroxide and either in presence or absence of compounds of the invention Apoptosis rate of ischemic HL-1 cells was normalised to the apoptosis rate of the 8h control cells under non-ischemic conditions, thus incubated with normal concentration of glucose in the absence of hydrogen peroxide. Both non-ischemic and ischemic HL-1 cultures were harvested after 8 hours. […] The apoptotic rates were then evaluated by TUNEL assay, a method for detecting DNA strand breaks in apoptotic cells by flow cytometer The solvent of the compounds, i.e DMSO, has no influence on the apoptosis rate. […] Effect of newly synthesized compounds with Rac1 inhibitory activity on apoptosis rate in HL-1 cells normalized to control (TUNEL-assay) The data are representative of two experiments.

[4] = tissue homogenate, 60 min, 10 µM
Protocol: (§3) The basic incubation mixture with total volume of 500 µl consisted of the following components. 100 µl liver homogenate, compound in DMSO (dimethyl sulfoxide) and 1 mM NADPH (reduced nicotinamide adenine dinucleotide phosphate), 1 mM UDPGA (uridine 5'-diphosphoglucuronic acid), 1 mM PAPS (3'-phosphoadenosine-5'-phosphosulfate) and 1 mM GSH (glutathione). The substrate concentration used was 10 µM. Two parallel incubations, one with cofactors and one without, were made. Final DMSO concentration in the incubation was 1 µM. […] Reaction was started by addition of a cofactor mixture and stopped by adding 250 µl of ice-cold acetonitrile.

[5] = system: major drug metabolising CYPs (including CYP2C19, CYP2D6, CYP3A4); test: Inhibition of major drug metabolising CYP activities
Text: The probe metabolites as in experimental For CYP2C19, a=omeprazole demethylation and b=omeprazole 5-hydroxylation; for CYP3A4, a=omeprazole 3-hydroxylation, b= omeprazole sulfonation, c=testosterone 6β-hydroxylation and d= midazolam 1'-hydroxylation.

[6] = Substrate depletion in human liver microsomes and in vitro - in vivo extrapolation; assay type: in vitro ADME; conditions: for CLh: hepatic clearance; for CLh / CLint / CLtot: extrapolated to human from substrate depletion (1 µM, 60 min); for half-life at 1 µM: human, human liver microsomes; for CLint: intrinsic clearance (whole liver); for CLtot: total (systemic) clearance
Protocol: The remaining peak areas after 60 minutes incubation was also determined after incubation with increasing concentrations of compounds CWB021/01039 and CWB024/02054. […] The disappearances for both study compounds were also clearly cofactor dependent and thus metabolism related Calculations of pharmacokinetic (PK) parameters on the basis of substrate depletion for both study compounds (1 µM, 60 min time point) in human liver microsomes are shown in Table 6. Table 6. Kinetic in vitro - in vivo extrapolations of study compound clearances and half-lifes in human, wherein: intrinsic clearance (whole liver) = CLint; hepatic clearance = CLH; total (systemic) clearance = CLtotal; half-life = t1/2.

[7] = PAMPA (Parallel Artificial Membrane Permeability Assay); assay type: in vitro ADME; conditions: start concentration 250 µM, diffusion period 16 h
Protocol: as §2
The flux rate of the compounds of the invention and the reference NSC23766 was measured from a donor compartment to an acceptor compartment across the lipid layer at a start concentration of 250 µM over a diffusion period of 16 h.

[8] = Metabolic stability and metabolite identification in liver homogenates with cofactors (LC/MS); conditions: liver homogenate with cofactors, 10 µM substrate, 60 min
Protocol: as §3

Rac1 [9] = target: T1, Rac1; test: Classic pull down assay of Rac1-GTP in human cells; assay type: cell-based; conditions: 50 and 100 µM; Figure 2
Protocol: Thus, a classic pull down assay was also performed in human cells incubated with 50 and 100 µM concentration of CWB024/02054

[10] = 0.1 µM initial substrate concentration
[11] = 1 µM initial substrate concentration
[12] = 10 µM initial substrate concentration

Chain of CYP2D6 (P10635 whole entry): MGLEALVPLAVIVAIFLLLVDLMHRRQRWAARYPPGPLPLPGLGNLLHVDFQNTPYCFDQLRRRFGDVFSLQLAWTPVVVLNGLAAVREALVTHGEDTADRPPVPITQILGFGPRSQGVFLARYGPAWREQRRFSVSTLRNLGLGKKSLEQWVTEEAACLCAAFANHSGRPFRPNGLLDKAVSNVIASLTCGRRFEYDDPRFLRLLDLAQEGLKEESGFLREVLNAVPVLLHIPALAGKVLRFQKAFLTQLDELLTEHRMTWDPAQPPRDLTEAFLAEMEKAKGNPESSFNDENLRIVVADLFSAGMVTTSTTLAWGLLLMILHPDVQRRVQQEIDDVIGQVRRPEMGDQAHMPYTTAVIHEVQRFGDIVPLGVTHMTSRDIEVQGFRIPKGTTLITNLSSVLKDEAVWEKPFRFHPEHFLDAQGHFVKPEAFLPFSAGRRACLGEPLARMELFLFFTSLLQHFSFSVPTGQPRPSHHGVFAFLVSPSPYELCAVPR

Compound	MVC [1]	Cytotoxicity-Classification [1]	EC50 [1]	inhibition at 10 µM (CYP2D6)	remaining activity at 50 µM (Rac1 [2])	inhibitory action on Rac1 activity (Rac1 [2])	MVC (HepG2 cells)	Cytotoxicity-Classification (HepG2 cells)	EC50 (HepG2 cells)	Caco2 Classification (Caco2)	Papp at 90 min, 50 µM [3]	MVC (HL-1)	Cytotoxicity-Classification (HL-1)	EC50 (HL-1)	Relative rate of apoptosis normalised to control [%] (HL-1 cells)	remaining LC/MS peak area (relative to 0 min incubation samples, %) [4]	IC50 [5]	remaining peak area after 60 minutes incubation [6, 10]	PAMPA classification [7]	PAMPA flux [%] ± SD [7]	also measured
CCN(CC)CCCC(C)Nc1nccc(Nc2ccc3[nH]c(C)cc3c2)n1 (stereo not shown) [CWB021/01039, N2-(4-Diethylamino-1-methyl-butyl)-N4-(2-methyl-1H-indol-5-yl)-pyrimidine-2,4-diamine]	31.3 µM	++ (10 µM < EC50 ≤ 100 µM, medium (++))	13 µM	35%	81.1%	significant end efficient inhibitory action	7.8 µM	++ (10 µM < EC50 ≤ 100 µM, medium (++))	21 µM	high (compounds with a Papp >10 are predicted to be well absorbed (70 - 100%))	17.1 ± 12.5 ×10⁻⁶ cm/s	31.2 µM	++ (10 µM < EC50 ≤ 100 µM, medium (++))	24 µM	511.6%	33-41%	> 10 µM	69%	low (low (flux <20%))	5±1%	remaining peak area after 60 minutes incubation [6, 11]: 81%; remaining peak area after 60 minutes incubation [6, 12]: 95%; CLh [6]: 15.14 L/h; half-life at 1 µM [6]: 7.3 h; CLint [6]: 0.31 L/min; CLtot [6]: 15.32 L/h
CCN(CC)CCCC(C)Nc1nccc(Nc2cnc3ccccc3c2)n1 (stereo not shown) [CWB022/02052, N2-(4-Diethylamino-1-methyl-butyl)-N4-quinolin-3-yl-pyrimidine-2.4-diamine]	7.8 µM	++ (10 µM < EC50 ≤ 100 µM, medium (++))	15 µM	–	–	significant end efficient inhibitory action	7.8 µM	++ (10 µM < EC50 ≤ 100 µM, medium (++))	32 µM	medium (compounds with Papp between 1 and 10 are moderately absorbed (20 - 70%))	–	31.2 µM	++ (10 µM < EC50 ≤ 100 µM, medium (++))	60 µM	607.8%	–	–	–	medium (medium (20%≤ flux ≤70%))	34±4%	Papp at 1.5 h, 50 µM ([3]; Caco-2, Caco2 monolayers, 90 min): 8.9 ± 2.7 ×10⁻⁶ cm/s; remaining LC/MS peak area (relative to 0 min incubation samples, %) [8]: 5%
CCN(CC)CCCC(C)Nc1nccc(Nc2ccc3[nH]ccc3c2)n1 (stereo not shown) [CWB024/02054, N2-(4-Diethylamino-1-methyl-butyl)-N4-(1H-indol-5-yl)-pyrimidine-2,4-diamine]	1.9 µM	++ (10 µM < EC50 ≤ 100 µM, medium (++))	17 µM	30%	58.3%	significant end efficient inhibitory action	7.8 µM	++ (10 µM < EC50 ≤ 100 µM, medium (++))	33 µM	high (compounds with a Papp >10 are predicted to be well absorbed (70 - 100%))	32.1 ± 12.4 ×10⁻⁶ cm/s	7.8 µM	++ (10 µM < EC50 ≤ 100 µM, medium (++))	56 µM	319.4%	about 91%	> 10 µM	76%	low (low (flux <20%))	6±2%	reduction of relative apoptosis (HL-1 cells; versus 8 h ischemia): approximately 50%; reduced the intracellular content of Rac1-GTP (Rac1 [9]): over 90%; remaining peak area after 60 minutes incubation [6, 11]: 87%; remaining peak area after 60 minutes incubation [6, 12]: 86%; CLh [6]: 10.63 L/h; half-life at 1 µM [6]: 10.3 h; CLint [6]: 0.2 L/min; CLtot [6]: 10.81 L/h
